Results published in US10426815B2, “Prevention and treatment of itch with an MRGPR antagonist” (THE GENERAL HOSPITAL CORPORATION, priority 2015, dated 2019).
Entries after “also recorded” stand apart in the source; their conditions may differ.

What was measured:
[1] = tested on: dorsal root ganglion neurons from NK1 mice; assay: DRG culture and calcium imaging, NK1 knockout mice; type: cell-based, mouse
Protocol: (§1) Cervical to lumbar dorsal root ganglia (DRG) from C57/B6 or NK1 mice (1 month old) were dissected and maintained in DMEM (GIBCO, Langley, Okla., USA), containing […] L-glutamine (FISHER […], Pittsburgh, Pa., USA), 10% heat inactivated fetal bovine serum (GIBCO, Langley, Okla., USA), 5000 U/ml penicillin and 5000 μg/ml streptomycin (FISHER […], Pittsburgh, Pa., USA). Enzymatic digestion was carried out with 1 mg collagenase in 1 ml dispase (ROCHE Applied Sciences, IN, USA), at 37° C. for 70 min. The collagenase/dispase solution was removed, and DRGs were washed and suspended in DMEM containing 125 U DNAse (SIGMA, St Louis, USA) within which the ganglia were mechanically triturated using fire-polished glass pipettes. […] Cells were evaluated using a NIKON Eclipse Ti inverted microscope equipped with an Exi Aqua CCD camera (QIMAGING, British Columbia, Canada). Ca^2+ flux fluorescence was measured as an […] ratio at 340 nm and 380 nm (F340/380) (Lambda DG4, Sutter Instruments, Novato, Calif., US). The 340/380 ratiometric images were analyzed using NIKON Elements AR Software (NIKON, Melville, N.Y. USA). […]

[2] = molecular target: T1, PAR2 (Homo sapiens, UniProt P55085); assay: Calcium imaging of cells transfected with the GPCR (Table 1); type: cell-based
T1 construct: expressed in transfected cells; host or cells: HeLa cells by analogy with the other receptors
T1 sequence (P55085 26-397): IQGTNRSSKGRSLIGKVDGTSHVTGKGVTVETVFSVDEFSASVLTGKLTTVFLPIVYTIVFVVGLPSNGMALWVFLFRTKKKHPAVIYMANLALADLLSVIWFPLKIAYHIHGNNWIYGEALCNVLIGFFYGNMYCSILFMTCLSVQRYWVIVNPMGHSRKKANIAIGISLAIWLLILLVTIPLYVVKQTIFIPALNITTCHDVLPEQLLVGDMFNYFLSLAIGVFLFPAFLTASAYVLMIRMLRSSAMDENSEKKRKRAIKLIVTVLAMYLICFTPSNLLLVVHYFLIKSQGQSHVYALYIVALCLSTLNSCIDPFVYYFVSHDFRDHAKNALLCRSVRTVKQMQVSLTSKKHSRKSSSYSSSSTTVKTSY

[3] = molecular target: T2, MrgC11 (mouse MrgprC11) (Mus musculus, UniProt Q8CIP3); assay: as above; type: cell-based; settings: capsaicin 3 μM
T2 construct: expressed in transfected cells; host or cells: HeLa cells
T2 sequence (Q8CIP3 1-322): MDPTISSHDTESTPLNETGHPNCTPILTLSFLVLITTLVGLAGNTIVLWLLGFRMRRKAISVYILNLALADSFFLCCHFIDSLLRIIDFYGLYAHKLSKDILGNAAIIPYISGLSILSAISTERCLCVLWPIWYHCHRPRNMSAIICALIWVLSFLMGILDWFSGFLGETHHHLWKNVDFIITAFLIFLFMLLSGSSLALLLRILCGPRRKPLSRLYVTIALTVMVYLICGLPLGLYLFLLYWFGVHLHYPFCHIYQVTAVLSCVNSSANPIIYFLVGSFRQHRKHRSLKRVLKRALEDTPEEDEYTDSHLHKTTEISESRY

[4] = tested on: WT DRGs; assay: DRG culture and calcium imaging, WT mice; type: cell-based, mouse
Protocol: as §1

## SP: inflammatory undecapeptide neuropeptide of the tachykinin family, synthesized by GenScript
[1]; cultured DRGs, calcium imaging
  activation of NK1 knockout DRG neurons by SP: activated

## SLIGRL: tethered hexapeptide ligand of mouse PAR2 (SEQ ID NO: 7)
[2]
  activation of PAR2 by the substance (in words): activates
[3]
  activation of mouse MrgprC11 by the substance (in words): activates

## Boc-Gln-D-Trp(Formyl)-Phe benzyl ester trifluoroacetate [QWF]
[1]; QWF 1 μM
  inhibition of SP-induced activation of NK1 knockout DRG neurons: significantly diminished; also recorded: blocked; also recorded: inhibits; also recorded: significantly decreases
[2]
  inhibition of PAR2 activation by 48/80: antagonizes
  inhibition of PAR2 activation by SLIGRL: not
[4]
  decrease of the response of WT DRGs to compound 48/80: significantly decreases
